Data as given in patent US9562082B2, “Production of glycoproteins with low N-glycolylneuraminic acid (Neu5Gc) content” (LEK Pharmaceuticals D.D., priority 2009, dated 2017).

Assays:
Format in all cases: cell-based, Chinese hamster
[1] = tested on: Recombinant CHO cells; assay: Content of the most acidic isoforms 7 and 8 (degree of sialylation) of secreted glycoprotein by AEX; details: for percentage of the most acidic isoforms: 0.75% (w/v) DMSO
Method: Throughout the entire description, above and below and including the examples, unless explicitly stated otherwise, the degree of sialylation is given in % (w/w) and was calculated as follows. Since the inventor had not available a method to directly measure the degree of sialylation (%, w/w), she estimated same indirectly from the relative content of the most acidic isoforms of each glycoprotein. Since isoforms 7 and 8 (see next paragraph) are the most acidic ones, she figured out that an increase of isoforms 7 and 8 is an indicator for the increased degree of sialylation. The inventor measured the distribution of the isoforms of a particular glycoprotein (e.g., of darbepoetin alfa, which is a cytokine) with AEX (anion exchange chromatography). AEX is not a quantitative method. Therefore, the inventor split the histogram into three parts as follows: the most basic isoforms 1, 2, and 3, the middle acidic isoforms 4, 5, and 6, and the most acidic isoforms 7 and 8. […] Therefore, the inventor compared, for each glycoprotein tested, the content (%, w/w) of the most acidic isoforms resulting from media without and from media with the additives according to the invention. In case their content increased, the inventor concluded that the degree of sialylation had likewise increased. Therefore, the degree of sialylation in the present application is given as the relative content of the most acidic isoforms (%, w/w). The increase in the degree of sialylation (of a particular glycoprotein obtained from a host cell culture using a medium with the additives according to the present invention vs. that of said glycoprotein obtained from a host cell culture using a medium without the inventive additives) is given on the basis of the increase of the content of the most acidic isoforms (%) after cultivating the host cells in the presence vs. absence of said additives. Recombinant CHO cells expressing high titres of the glycosylated human glycoproteins were cultivated in suspension culture using rich in-house standard medium without additives according to the invention. After 2 weeks of passages, the cells were first harvested and subsequently inoculated into the same medium, however, supplemented with a range of DMSO concentrations from 0.25% to 1.50% (w/v). The effect of DMSO on growth, productivity, degree of sialylation, and Neu5Gc content was studied. “One factor at the time”-experiments with different DMSO concentrations at 37° C. and 33° C., respectively, were performed at first in an attempt to determine the DMSO concentration and temperature which are best to minimise the Neu5Gc content on the glycoproteins secreted. To study the interaction between the parameters (i) DMSO concentration, (ii) time of DMSO addition, and (iii) time of the temperature shift (from 37° C. to 33° C.), further experiments were performed with the Design-Expert/Design-Ease programme (Stat-Ease, Inc., Minneapolis, Minn., USA) using the response surface method. Parameters (i), (ii), and (iii) were chosen as numeric factors and the axial points were set slightly out of already known ranges in order to cover a wide design space. One replicate on axial points, one replicate on factorial points and 4 centre points were performed. The results were analysed using the Design of Expert (DOE) software (Design-Expert, Version 7.1). The results of the shake flask experiments were confirmed in the Biostat®B bioreactor (Sartorius, B. Braun Biotech International, Germany). Exponentially growing cells were taken from cell culture flasks having a surface area of 225 cm^2 (Corning®Costar®). A Biostat®B bioreactor with a working volume of 5 litres was inoculated with 2×10^5 cells/ml. […] Following glycoprotein purification, the isoform distribution of the immuno-affinity purified glycoproteins was determined by anion exchange chromatography (AEX). The chromatographic separation of various isoforms is based on the differences in their charges. […]

[2] = tested on: Recombinant CHO cells; assay: Specific productivity (Qp); details: DMSO 0.75, temperature 37
Method: According to the optimal range of the DMSO concentration, a numerical and graphical optimisation was performed using DOE software (FIG. 3). A minimal content of Neu5Gc and a maximal content of the most acidic isoforms were chosen as very important parameters, while increased titres and growth rates were weighted as medium important parameters. The ramps were extended a little over the limits. […] The specific productivity (Qp) was calculated following Equation 1 and expressed as pg of glycoprotein/[…]=(P2-P1)/((X2+X1)*(t2-t1)/2) Equation 1 (P2 and P1 are concentrations of secreted glycoprotein at the end and at the beginning of the repeated batches, respectively; X1 and X2 are cell concentrations at the corresponding time points t1 and t2).

[3] = tested on: Recombinant CHO cells; assay: Specific growth rate; details: DMSO 0.75, temperature 37
Method: The specific growth rate was calculated following Equation 2 and represents the overall biomass accumulation under the growth curve from the beginning to the end of the batch process (expressed as a logarithmic value per day (day^−1)). Specific growth rate=ln(X2/X1)/(t2−t1) Equation 2 (X1 is the number of viable cells on day 0 and X2 the number of cells at the end of the repeated batches, respectively. t1 is time 0, and t2 is time 7 or the end day of the process, respectively.)

[4] = tested on: Recombinant CHO cells; assay: Cell viability by trypan blue exclusion; details: 8 day batch cultures, all DMSO concentrations, times of addition and temperatures tested
Method: Cell viability was determined by the trypan blue exclusion method. The cell concentration was determined using a Vi-CELL™ Series Cell Viability Analyzer (Beckman Coulter, Fullerton, Calif., USA). Glucose, lactate, glutamine, and ammonia (NH4^+) concentrations were measured during the growth phase using a BioProfile Analyzer for mammalian cell culture (BioProfile 100 plus, Nova Biomedical, Waltham, USA). Additionally, oxygen and […] concentrations were monitored daily using pHOx (Stat Prophile pHOx Basic, Nova Biomedical, Waltham, USA). Secreted glycoprotein concentrations were quantified by enzyme linked immunosorbent assay (ELISA), and the titres were expressed in μg/ml.
Initially, the inventor avoided the addition of DMSO to the cell culture at the beginning of the bioprocess, because […] speculated that such addition might not be optimal, since the cells had no time for an optimal lag phase-growth (adaptation). […] Viable cell density and viability of the cells were measured in the middle and at the end of that period. The final titre (concentration of each glycoprotein in the culture medium) was measured in the supernatants with ELISA. […] The content of Neu5Gc on the purified glycoproteins was determined, and the acidic isoform distribution reflecting the degree of sialylation was measured with AEX.

Compound: C[S+](C)[O-] [DMSO, dimethyl sulfoxide]
- average content of the most acidic isoforms, all glycoproteins tested ([1]; 0.5% DMSO): 1.31%
- average content of the most acidic isoforms, all glycoproteins tested ([1]; 0.75% DMSO): 1.28%
- average content of the most acidic isoforms, all glycoproteins tested ([1]; 1% DMSO): 1.21%
- average content of the most acidic isoforms, all glycoproteins tested ([1]; 1.25% DMSO): 1.26%
- Isoforms 7&8, DOE point prediction ([1]; DMSO 0.75, temperature 37): 1.21%
- percentage of the most acidic isoforms ([1]; bioreactor batch process): about 2.2%
- percentage of the most acidic isoforms ([1]; shake flask batch process): about 1.35%
- Specific productivity, DOE point prediction [2]: 2.43 pcd
- Specific growth rate, DOE point prediction [3]: 0.54 day⁻¹
- final cell viability [4]: above 97.5%
